“And” between values parts separate entries of the source, which are not always exact repeats. Equal entries are not always repeated.
Columns and labels:
[1] = tested on: plants de maïs; assay: Growth of maize plants treated with the inhibitors (weights, water content); assay type: in vivo
Experimental: Des plants de maïs ont été traités pendant 10, 20 ou 30 jours par l'OHPAS et le NH2PAS à deux concentrations (80 et 160 µM).
Les .inhibiteurs sont ajoutés au milieu nutritif.
Les cultures sur vermiculite (20 plants) sont arrosées quotidiennement par 250 ml de milieu (avec ou sans inhibiteurs). Les semis constituent le temps 0 de la culture, l'addition des inhibiteurs au milieu nutritif est réalisée dès l'émergence de la partie aérienne (2 à 3 jours). Les différentes caractéristiques des plants sont estimées après 10, 20 ou 30 jours.
Le traitement par les deux inhibiteurs conduit à des plants de maïs dont les caractéristiques pondérales et les teneurs en eau sont données dans le tableau 4. L'analyse des résultats ne montre aucune différence significative entre les plants traités et les plants témoins. De même, les tailles et l'aspect morphologique des différents lots sont similaires. Toutefois, on constate que le port dressé des maïs est légèrement affecté.

[2] = tested on: plants de mais; assay: Primary metabolism of treated maize plants (soluble proteins, chlorophylls, nucleic acids); assay type: in vivo; settings: plants âgés de 30 jours; 80 µM
Experimental: (§1) Les différentes études dont les résultats sont rapportés ci-après ont été réalisées à partir de plants de mais âgés de 30 jours et traités par l'OHPAS et le NH2PAS à la concentration de 80 µM.
Afin d'estimer l'action de l'OHPAS et du NH2PAS sur le métabolisme primaire, les teneurs de trois classes de composés ont été estimées : les protéines solubles, les chlorophyllles et les acides nucléiques.

[3] = tested on: plants de mais; assay: Soluble phenolic compounds of treated maize plants; assay type: in vivo; settings: plants âgés de 30 jours, 80 µM; for FLAVONOIDES / PHENOLS SIMPLES: mean of 3
Experimental: as §1
Le traitement des plants par les inhibiteurs ne modifie pas les teneurs en ces composés comme le montrent les résultats rapportés dans le tableau 6 ci-après. Cependant, on constate une baisse importante (40% avec l'OHPAS) des quantités de flavonoïdes.

[4] = tested on: plants de luzerne; assay: Lignin content of 30-day alfalfa plants; assay type: in vivo; settings: plants de luzerne de 30 jours
Text: 6) Effets des inhibiteurs sur la teneur en lignines de plants de luzerne de 30 jours : • Le protocole est le même que celui décrit pour les plants de mais.
On rapporte dans le tableau 7 ci-après les pourcentages d'inhibition obtenus en fonction de la concentration en produit.

[5] = molecular target: T1, CAD de peuplier (Populus deltoides, UniProt P31657); assay: In vitro inhibition of isolated poplar cinnamyl alcohol dehydrogenase (CAD) at 2 mM; assay type: biochemical; settings: mode of action study
T1 construct: CAD de peuplier isolée selon la méthode deSARNI et al,1984; from tissue; host or cells: poplar plant material
T1 sequence (P31657 1-357): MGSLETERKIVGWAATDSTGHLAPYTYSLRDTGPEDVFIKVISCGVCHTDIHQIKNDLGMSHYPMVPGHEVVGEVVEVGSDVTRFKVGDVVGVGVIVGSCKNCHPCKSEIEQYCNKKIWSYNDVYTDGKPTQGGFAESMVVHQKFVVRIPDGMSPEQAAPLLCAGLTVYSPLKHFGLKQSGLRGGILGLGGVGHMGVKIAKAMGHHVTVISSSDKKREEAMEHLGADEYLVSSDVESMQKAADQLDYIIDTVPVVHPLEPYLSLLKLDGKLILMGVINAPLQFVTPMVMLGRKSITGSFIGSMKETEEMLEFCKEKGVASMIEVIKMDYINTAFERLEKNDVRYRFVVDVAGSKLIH

[6] = tested on: plants de maïs; assay: Cell-wall polysaccharide content of treated maize plants; assay type: in vivo; settings: plants âgés de 30 jours; 80 µM
Experimental: as §1
Le dosage de l'ensemble des polysaccharides pariétaux mais également de la fraction cellulosique n'a révélé aucune différence significative entre les plants témoins et les plants traités.

[7] = molecular target: T1, CAD de peuplier; assay: In vitro inhibition of isolated poplar cinnamyl alcohol dehydrogenase (CAD) at 2 mM; assay type: biochemical; settings: 2mM, CAD de peuplier; for inhibition at 2000 µM: read-out: Inhibition à 2mM %
Text: Après réacidification à pH2 par de l'acide chlorhydrique 3N et centrifugation, le surnageant contenant les acides cinnamiques est séparé du résidu. Les "poudres alcool-benzène" ainsi hydrolysées sont lavées par de l'eau distillée jusqu'à pH neutre et séchées, sous vide dans un dessiccateur en présence de silica.-gel. Les teneurs en lignines sont estimées par la méthode gravimétriques de KLASON (Tappi Standard method Tl2m) modifiée par EFFLAND. Tappi, 60, p 143-144, 1977. On rapporte dans le tableau 1) suivant les résultats obtenus concernant l'effet mesuré in vitro d'inhibiteurs selon l'invention à une concentration de 2mM vis-à-vis de la CAD de peuplier isolée selon la méthode deSARNI et al,1984,EUROP JOURNAL OF BIOCHEMISTRY, 18(1),139, 259-265 On indique également dans ce tableau les résultats obtenus avec des composés portant des substitutions différentes de ceux mis enoe uvre dans l'invention. Les chiffres indiqués entre parenthèses a côté des formules correspondent aux composés identifiés dans les exemples de préparation 2 et 3.
On rapporte dans le tableau 2 suivant les pourcentages d'inhibition de la CAD obtenus en utilisant, à raison de 2 mM, différents composés capables de complexer Zn.

[8] = 10 jours de culture, 160 µm en inhibiteurs
[9] = 10 jours de culture, concentration not given
[10] = 10 jours de culture, concentration not given, mean of 20 plants
[11] = 20 jours de culture, 160 µm en inhibiteurs
[12] = 20 jours de culture, concentration not given
[13] = 30 jours de culture, 160 µm en inhibiteurs
[14] = 30 jours de culture, concentration not given

SMILES | Poids matériel frais g/plant [1, 8] | Poids matériel sec g/plant [1, 8] | Teneur en eau g/g de poids sec [1, 8] | Poids matériel sec g/plant [1, 9] | Teneur en eau g/g de poids sec [1, 9] | Poids matériel frais g/plant [1, 10] | Poids matériel frais g/plant [1, 11] | Poids matériel sec g/plant [1, 11] | Teneur en eau g/g de poids sec [1, 11] | Poids matériel frais g/plant [1, 12] | Poids matériel sec g/plant [1, 12] | Teneur en eau g/g de poids sec [1, 12] | Poids matériel frais g/plant [1, 13] | Poids matériel sec g/plant [1, 13] | Teneur en eau g/g de poids sec [1, 13] | Poids matériel frais g/plant [1, 14] | Poids matériel sec g/plant [1, 14] | Teneur en eau g/g de poids sec [1, 14] | ADN (mg/g PS) [2] | ARN (mg/g PS) [2] | further results
CC(C)(C)OC(=O)C[S+]([O-])Nc1ccccc1N (stereo not drawn) [composé 5, N-(o-Amino phényl)Sulfinamoyl Acétate de tertiobutyle] | 1,00 g/plant | 0,088 g/plant | 13,36 g/g de poids sec | 0,108 g/plant | 15,70 g/g de poids sec | 1,80 g/plant | 3,25 g/plant | 0,321 g/plant | 9,12 g/g de poids sec | 3,00 g/plant | 0,298 g/plant | 9,07 g/g de poids sec | 4,80 g/plant | 0,458 g/plant | 9,48 g/g de poids sec | 4,40 g/plant | 0,438 g/plant | 9,04 g/g de poids sec | 1,38 ± 0,7 mg/g PS | 19,81 ± 0,2 mg/g PS | Chlorophylles (mg/g PS) [2]: 7,69 ± 0,3 mg/g PS; Protéines solubles (mg/g PS) [2]: 49,30 ± 2 mg/g PS; % PERTE (flavonoïdes) [3]: 48%; % PERTE (phénols simples) [3]: 0%; FLAVONOIDES [3]: 25 ± 14 mg d'acide gallique par g de matériel; PHENOLS SIMPLES [3]: 101 ± 10 mg d'acide gallique par g de matériel; % d'inhibition (teneur en lignines) ([4]; 25 µM): 20%; % d'inhibition (teneur en lignines) ([4]; 50 µM): 17%; réversibilité de l'inhibition de la CAD [5]: faiblement réversible; synthèse de la fraction polysaccharidique de la paroi [6]: n'apparaîssent pas affecter; Inhibition à 2mM % ([7]; 2000 µM): 80%; inhibition at 2000 µM [7]: 90%
CC(C)(C)OC(=O)C[S+]([O-])Nc1ccccc1O (stereo not drawn) [composé 2, N-(o -hydroxy phényl)sulfinamoyl acétate de tertiobutyle] | 0,98 g/plant | 0,083 g/plant | 10,81 g/g de poids sec | 0,103 g/plant | 18,40 g/g de poids sec | 2,00 g/plant | 2,98 g/plant | 0,300 g/plant | 8,93 g/g de poids sec | 3,20 g/plant | 0,318 g/plant | 9,06 g/g de poids sec | 4,52 g/plant | 0,429 g/plant | 9,53 g/g de poids sec | 4,65 g/plant | 0,420 g/plant | 10,07 g/g de poids sec | 1,35 ± 0,6 mg/g PS | 21,08 ± 0,3 mg/g PS | Chlorophylles (mg/g PS) [2]: 7,80 ± 0,3 mg/g PS; Protéines solubles (mg/g PS) [2]: 49,50 ± 1 mg/g PS; % PERTE (phénols simples) [3]: 0%; % PERTE (flavonoïdes) ([3]; listed as OHPAS): 40% and 42%; FLAVONOIDES [3]: 28 ± 11 mg d'acide gallique par g de matériel; PHENOLS SIMPLES [3]: 107 ± 8 mg d'acide gallique par g de matériel; % d'inhibition (teneur en lignines) ([4]; 25 µM): 13%; % d'inhibition (teneur en lignines) ([4]; 50 µM): 31%; réversibilité de l'inhibition de la CAD [5]: faiblement réversible; synthèse de la fraction polysaccharidique de la paroi [6]: n'apparaîssent pas affecter; inhibition at 2000 µM [7]: 90%

Source: patent publication EP0155872A1, “Process for reducing the lignin content of plants, and compositions for putting it into use” (priority 1984, dated 1985)
